System: S. aureus Oxford, S. aureus WCUH29, S. pneumoniae 1629, S. pneumoniae N1387, S. pneumoniae ERY 2
Experiment: MIC of test compounds against various organisms
Assay type: cell-based
Settings: against one or more of S. aureus Oxford
Method: The MIC (μg/ml) of test compounds against various organisms was determined: S. aureus Oxford, S. aureus WCUH29, S. pneumoniae 1629, S. pneumoniae N1387, S. pneumoniae ERY 2.

CCCCCCCNC1CCN(C[C@H](O)c2ccnc3ccc(OC)cc23)CC1C(N)=O (mixture of isomers) [Example 4, cis-3-(R/S)-Aminocarbonyl-4-(S/R)-heptylamino-1-[2-(R)-hydroxy-2-(6-methoxyquinolin-4-yl)]ethylpiperidine dioxalate]
MIC: ≤ 1 µg/mL

Reference: patent publication US7001913B1, “Aminopiperidine derivatives as antibacterials” (SmithKline Beecham P.L.C., priority 1999, dated 2006)
